Laboratory results taken from patent US11065211B2, “Isoxylitones mediated neurogenesis” (priority 2018, dated 2021).

How the values were obtained:
Assay type in all cases: cell-based, rat
[1] = system: hypoxic hippocampal cells; assay: In-vitro model of hypoxic pre-conditioning; details: 2 h hypoxia then treatment at various concentrations, vs positive control hypoxic cells, FIG. 7
Procedure: In-vitro model of hypoxic cells was established by hypoxia chamber, which contain 5% carbon dioxide, 1% oxygen and 94% nitrogen. Isolated cortical and hippocampal cells from 1-2 days old rat pups were cultured in 75 cm flask in DMEM medium, after culturing cells were plated on 96 well plate at 7000-8000 viable cells per well and incubated in hypoxia chamber for 2 hour at 37° C. for hypoxic conditioning or oxygen deprivation. Following hypoxic shock, medium was replaced with fresh complete medium. Only cells without hypoxia were kept in normal condition as a control group while untreated hypoxic cells were kept as a positive control cells. Following two hours hypoxia the treatment of isoxylitones at various doses was given to hypoxic cells and MTT assay was used to determine the viability of cells in all treated and control cells. The absorbance of the plate was read by spectrophotometer at 570 nm wavelength.

[2] = system: co-cultured cortical (CTX-CoCul) cells; assay: Growth supporting effect on co-cultures with BMSCs (phase contrast microscopy); details: 24 h, FIG. 2
Procedure: (§1) Wistar rats (150-200 gm) were used to isolate bone marrow (BM). Rats were sacrificed and their femurs were removed aseptically. The bone marrow (BM) was flushed from the shaft of the bone by clipping of the epiphysial ends and flushing using a 26-gauge needle with ˜2 ml of Dulbecco's Modified Eagle's medium (DMEM) supplemented with 5% FBS, 1% penicillin/streptomycin solution, 1% sodium pyruvate and L-glutamine. The BM was then centrifuged for 8 minutes at 1000 rpm. Following centrifugation, cell pellet was collected and 1 ml of fresh DMEM was added. The cell viability was checked using trypan blue exclusion method. The cells were then divided into three equal parts. One part was co-cultured with freshly isolated hippocampal cells in T75 cm^2 flask, 2nd with freshly isolated cortical cells and the third portion (BM cells only) was cultured as a control. The cell density for co-cultures was set at 140,000 cells/ml for each type of culture. The cultured flasks were then incubated at 37° C. and 5% CO2. After 4-5 days, floating hematopoietic cells and dead debris/tissues of hippocampus and cortex were removed and bone marrow stromal cells (BMSCs) were recovered due to their tendency to adhere. Medium was replaced after every 3 to 4 days till cells became 80-90% confluent.
(§2) To evaluate the growth supporting effect of isoxylitones the hippocampal, cortical and co-cultured cells were plated in 6-well plates and treated with 25 μg/mL, 50 μg/mL, 75 μg/mL and 150 μg/mL doses of isoxylitones. Cells with no treatment were set as a control. The plates were incubated for 24 and 72 hrs in a humidified chamber at 37° C. in 5% CO2. To assess the morphology of the treated cells, images were captured and digitalized with Nikon TE-2000 inverted microscope equipped with phase-contrast optics to measure the difference of control group from treated group. The cells were observed carefully in order to check if they maintain their morphological characteristics after treatment with the compound. The doses which supported the maximum proliferation were used for proliferation assays i.e., AlamarBlue and BrdU assay.

[3] = system: co-cultured hippocampal (HP-CoCul) cells; assay: as above; details: 24 h, FIG. 2
Procedure: as §1, §2

Cocul-CTX cells = assay: AlamarBlue proliferation assay; details: 24 h, FIG. 4
Procedure: as §1
(§3) AlamarBlue (AB), a water-soluble dye having resazurin salt was used to evaluate the effect of isoxylitones on the proliferation of the cultured cells. AB measures mitochondrial reductase activity of live cells. The resazurin has ability to enter the cytosol of viable cell and converted to the reduced fluorescent form resorufin by mitochondrial enzyme activity by accepting electrons from NADPH, FADH, FMNH, NADH as well as from the cytochromes. […] The amount of fluorescence produced is proportional to the number of living cells (Al-Nasiry, Geusens, Hanssens, Luyten, Pijnenborg, 2007). […] After incubation, the fluorescence intensity in each well was recorded at an excitation wavelength of 570 nm and an emission wavelength of 600 nm. The rate of cell proliferation was expressed as the relative fluorescence intensity. […] The blank media fluorescence measurement was subtracted from fluorescence measurements of cells from the same run.
(§4) Formula used to calculate the percentage reduction of AB using absorbance readings:
(§5) [formula] Where: O1=molar extinction coefficient (E) of oxidized alamarBlue® (Blue) at 570 nm O2=E of oxidized alamarBlue® at 600 nm A1=absorbance of test wells at 570 nm A2=absorbance of test wells at 600 nm P1=absorbance of positive growth control well (cells plus alamarBlue® but no test agent) at 570 nm P2=absorbance of positive growth control well (cells plus alamarBlue® but no test agent at 600 nm

Cocul-HP cells = assay: AlamarBlue proliferation assay; details: 24 h, FIG. 4
Procedure: as §1, §3, §4, §5

cortical cells = assay: AlamarBlue proliferation assay; details: 24 h treatment, vs control, FIG. 3
Excerpt: (§6) AlamarBlue (AB), a water-soluble dye having resazurin salt was used to evaluate the effect of isoxylitones on the proliferation of the cultured cells. AB measures mitochondrial reductase activity of live cells. The resazurin has ability to enter the cytosol of viable cell and converted to the reduced fluorescent form resorufin by mitochondrial enzyme activity by accepting electrons from NADPH, FADH, FMNH, NADH as well as from the cytochromes. The redox reaction is accompanied by a change in color of the culture medium from blue to fluorescent red (Al-Nasiry, Geusens, Hanssens, Luyten, Pijnenborg, 2007). The amount of fluorescence produced is proportional to the number of living cells (Al-Nasiry, Geusens, Hanssens, Luyten, Pijnenborg, 2007). The cultured hippocampal, cortical and co-cultures were plated in 96-well plates (10,000 cells/well) and incubated for 24 hrs at 37° C. and 5% CO2. […] After incubation, the fluorescence intensity in each well was recorded at an excitation wavelength of 570 nm and an emission wavelength of 600 nm. The rate of cell proliferation was expressed as the relative fluorescence intensity. […] The blank media fluorescence measurement was subtracted from fluorescence measurements of cells from the same run.
(§7) Formula used to calculate the percentage reduction of AB using absorbance readings: […]

hippocampal cells = assay: AlamarBlue proliferation assay; details: 24 h treatment, vs control, FIG. 3
Excerpt: as §6, §7

CC(=O)C=C1C=C(C)CC(C)(C)C1 (mixture of isomers) [isoxylitones]
recovery of hypoxic cells (phase-contrast morphology) [1]: Recovery of hypoxic cells clearly observed | number of proliferating cells [2]: Marked increase | variation in morphology [2]: no significant variation in the morphology | number of proliferating cells ([3]; HP-CoCul cells): Marked increase | variation in morphology ([3]; HP-CoCul cells): no significant variation in the morphology | rate of proliferation in hippocampus cells as compared to cortical cells ([3]; co-cultured cells): almost double | highest proliferative dose (Cocul-CTX cells): 150 µg/mL | growth proliferation (Alamar blue) (Cocul-CTX cells; various doses): dose dependent growth proliferative effect | highest proliferative dose (Cocul-HP cells): 150 µg/mL | growth proliferation (Alamar blue) (Cocul-HP cells; various doses): dose dependent growth proliferative effect | proliferation (Alamar blue) (cortical cells): growth supportive and proliferative effect | proliferation (Alamar blue) (hippocampal cells): growth supportive and proliferative effect
